Experimental data reported in PubChem BioAssay (NCI).
Several values for one entry are separate records, joined by “and”; a condition that tells them apart may be missing. Identical values can stand only once.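 Where inhibition never reached the appropriate level, the endpoint shown equals the highest concentration tested. Otherwise, values were interpolated linearly from a five-concentration, 48-hour dose response in 96-well plates. TGI: total growth inhibition.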

Key:
Assay in all cases: NCI-60 cell line screen, 48 h
[1] = system: OVCAR-4 ovarian
[2] = system: A498 renal
[3] = system: EKVX NSCLC
[4] = system: SF-295 CNS
[5] = system: SN12C renal
[6] = system: NCI-H460 lung
[7] = system: CAKI-1 renal
[8] = system: COLO 205 colon
[9] = system: T-47D breast
[10] = system: MCF7 breast

Measured: TGI

CC(C)(CN1CCCCC1)C(=O)CC(SCCS(=O)(=O)O)c1ccc(Br)cc1 (centres undefined)
2.97 µM: [5]
7.2 µM: [7]
2.82 µM: [8]
5.73 µM: [2]
4.48 µM: [6]
4.06 µM: [1]
6.51 µM: [3]
16.7 µM: [4]

NC1=NS(=O)(=O)N=C(N)C1=Cc1ccc([N+](=O)[O-])o1
29.1 µM: [8]
34.1 µM: [1]
30.1 µM: [5]
35.9 µM: [6]
32.5 µM: [3]
61.8 µM: [4]

COc1cc(C(=O)Nc2nnc(S(N)(=O)=O)s2)cc(OC)c1OC
not listed: [2]
> 100 µM: all other assays above

O=c1[nH]c(=O)n(C2CC(O)C(CO)O2)cc1C#Cc1ccc(C(F)(F)F)cc1 (centres undefined)
> 100 µM: [1] | [3] | [4] | [5] | [6] | [8]

O=c1oc2ccccc2cc1-c1nc2ccc([N+](=O)[O-])cc2o1
not listed: [1]
> 100 µM: all other assays above

C#CC(C)(C)Oc1cc(OC)c2c(=O)c3ccccc3n(C)c2c1
51.8 µM: [4]
41.8 µM: [1]
36 µM: [6]
27.9 µM: [9]
49.9 µM: [5]
> 100 µM: [10]
74.5 µM: [3]
33.7 µM: [8]

O=C(Cn1c2ccc(Br)cc2c2nc3ccccc3nc21)NC1CCCCC1
not listed: [3] | [10]
> 100 µM: all other assays above

O=C1CCC2(CCC(=O)NC2=O)C(=O)N1
> 100 µM: [3] | [4] | [5] | [6] | [8]

CC1(C)CC(=O)C(/C=N/c2nc(-c3ccc(Br)cc3)cs2)=C(O)C1
99.2 µM: [8]
63.3 µM: [7]
not listed: [2]
> 100 µM: all other assays above

C=CCc1c(O)c2ccccc2[nH]c1=O
not listed: [9]
> 100 µM: all other assays above

O=C1CCC2(CC1)Cc1ccccc1C2O (centres undefined)
not listed: [2]
> 100 µM: all other assays above

CN(C)c1ccc(/C=C(\NC(=O)c2ccccc2)C(=O)Nc2ccccc2C(=O)NN2C(=O)CSC2c2ccc(N(C)C)cc2)cc1 (centres undefined)
31.7 µM: [6]
not listed: [1]
> 100 µM: all other assays above

Cc1cnc(Cl)nc1C(C#N)c1nc2ccccc2n1C (centres undefined)
57.1 µM: [3]
not listed: [10]
> 100 µM: all other assays above

CCOC(=O)C1C/C(C)=C(/C)SCCCS1 (centres undefined)
not listed: [7]
> 100 µM: all other assays above

c1ccc(C2=NN3CN(N2)c2ccccc2OCCCOc2ccccc23)cc1
> 100 µM: [1] | [3] | [4] | [5] | [6] | [8]

Cc1cs/c(=N\C(P(=O)(O)O)P(=O)(O)O)n1C
not listed: [1] | [5] | [9]
> 100 µM: all other assays above

Cc1nc2c(n1Cc1ccc(Cl)cc1)C(=O)c1ccccc1C2=O
> 75 µM: [1] | [3] | [4] | [5] | [6] | [8]

c1ccc2c(c1)CC1c3[nH]c4ccccc4c3CCN21 (centres undefined)
not listed: [2]
> 10 µM: all other assays above

Brc1ccc(N2C[N+](c3ccc(Br)cc3)=NC(c3ccccc3)=N2)cc1
31.8 µM and > 100 µM: [3]
32.8 µM and > 100 µM: [2]
33.3 µM and > 100 µM: [5] | [7]
33.7 µM and > 100 µM: [8]
35.3 µM and > 100 µM: [1]
29.1 µM and > 100 µM: [4]
29.5 µM and > 100 µM: [6]
